[1] abbreviates: first concentration that prohibits growth by OD at 24 hours, Table 1.

In brackets after ≈: the same amount, converted by molar mass. Where two headings read alike, the source gives them in different places. Where a SMILES comes first, the peptide text is derived from it.

On to `CC[C@H](C)[C@H](NC(=O)[C@@H](NC(=O)[C@H](CS)NC(=O)[C@H](Cc1ccc(O)cc1)NC(=O)[C@@H](NC(=O)[C@H](CO)NC(=O)[C@@H]1CCCN1C(=O)[C@@H](NC(=O)[C@@H](NC(=O)[C@H](CCCCN)NC(=O)[C@H](CO)NC(=O)[C@H](C)NC(=O)[C@H](CC(C)C)NC(=O)[C@H](CCCCN)NC(=O)[C@H](Cc1ccccc1)NC(=O)[C@@H](NC(=O)[C@@H](N)C(C)C)C(C)C)C(C)C)C(C)C)C(C)C)[C@@H](C)O)C(=O)N[C@H](C(=O)N[C@@H](CCCCN)C(=O)N[C@@H](CCCCN)C(=O)O)[C@@H](C)O` [Peptide 88] (H-VVFKLASKVVPSVYCTITKK-OH; N-terminus and C-terminus assumed), for which, in the assay with Escherichia coli (24 h), the “MIC E. coli” value was 256 µg/mL (≈ 116 µM). Further, in the assay on B. cereus (setting [1]), the “MIC B. cereus” value is given as “+ (MIC greater than 256 ug/mL)”.

Regarding `CC[C@H](C)[C@H](NC(=O)[C@H](CC(C)C)NC(=O)CNC(=O)[C@@H](NC(=O)[C@@H](NC(=O)[C@H](C)NC(=O)[C@@H]1CCCN1C(=O)[C@@H](NC(=O)[C@@H](NC(=O)[C@H](CCCCN)NC(=O)[C@H](CO)NC(=O)[C@H](C)NC(=O)[C@H](CC(C)C)NC(=O)[C@H](CO)NC(=O)[C@H](Cc1ccccc1)NC(=O)[C@H](CC(C)C)NC(=O)[C@H](C)NC(=O)CN)C(C)C)C(C)C)C(C)C)[C@@H](C)CC)C(=O)N[C@@H](CCCCN)C(=O)N[C@@H](CCCCN)C(=O)O` [Peptide 96] (H-GALFSLASKVVPAVIGLIKK-OH; N-terminus and C-terminus assumed), the “MIC E. coli” value against Escherichia coli (setting [1]) was “+ (MIC greater than 256 ug/mL)”. Besides, the “MIC B. cereus” value in the assay with B. cereus (24 h) worked out at 256 µg/mL (≈ 127 µM).

Take `CC[C@H](C)[C@H](NC(=O)[C@H](CCSC)NC(=O)[C@H](C)NC(=O)[C@@H]1CCCN1C(=O)[C@@H](NC(=O)[C@@H](NC(=O)[C@H](CCCCN)NC(=O)[C@@H](NC(=O)[C@H](CC(C)C)NC(=O)CNC(=O)CNC(=O)[C@H](CC(C)C)NC(=O)[C@@H](N)Cc1ccccc1)[C@@H](C)CC)[C@@H](C)CC)C(C)C)C(=O)N[C@@H](CS)C(=O)N[C@@H](C)C(=O)N[C@H](C(=O)N[C@H](C(=O)N[C@@H](CCCCN)C(=O)N[C@@H](CCCCN)C(=O)N[C@@H](CS)C(=O)O)[C@@H](C)O)C(C)C` [Ranalexin] (H-FLGGLIKIVPAMICAVTKKC-OH; N-terminus and C-terminus assumed): the “MIC E. coli” value in the assay with Escherichia coli (24 h) was 64 µg/mL (≈ 30.4 µM). In addition, the “MIC B. cereus” value with B. cereus (24 h) came to 32 µg/mL (≈ 15.2 µM).

AATGTGKTAAFALPVLERLI [Peptide 38]: the “MIC E. coli” value against Escherichia coli (setting [1]) is given as “+ (MIC greater than 256 ug/mL)”. For the same molecule, the “MIC B. cereus” value against B. cereus (setting [1]) was “+ (MIC greater than 256 ug/mL)”.

AKKAQKSGAQTIVKIFAKGM [Shuffled 39]: the “MIC E. coli” value with Escherichia coli (setting [1]) is reported as “+ (MIC greater than 256 ug/mL)”. For the same molecule, the “MIC B. cereus” value with B. cereus (setting [1]) is on record as “+ (MIC greater than 256 ug/mL)”.

In the case of ALFSLASKVVPSVFSMVTKK [Peptide 1], in the assay with Escherichia coli (setting [1]), the “MIC E. coli” value is “+ (MIC greater than 256 ug/mL)”. Moreover, in the assay on B. cereus (setting [1]), the “MIC B. cereus” value was “+ (MIC greater than 256 ug/mL)”.

Consider ALVYAGIKKTAFLKVQKCDG [Shuffled 33], for which the “MIC E. coli” value in the assay on Escherichia coli (setting [1]) was “+ (MIC greater than 256 ug/mL)”. Further, the “MIC B. cereus” value with B. cereus (setting [1]) was “+ (MIC greater than 256 ug/mL)”.

For FKVVISKPGLSVRVGTALVT [Shuffled 65], the “MIC E. coli” value with Escherichia coli (setting [1]) is “++ (MIC greater than 128 ug/mL, not sufficiently soluble to test as 256 ug/mL)”. The “MIC B. cereus” value in the assay with B. cereus (setting [1]) was “++ (MIC greater than 128 ug/mL, not sufficiently soluble to test as 256 ug/mL)”.

Take FLPFVGRIASKVVPSVIGKV [Peptide 75]: in the assay on Escherichia coli (setting [1]), the “MIC E. coli” value is listed as “+ (MIC greater than 256 ug/mL)”. Besides, the “MIC B. cereus” value in the assay with B. cereus (setting [1]) is listed as “+ (MIC greater than 256 ug/mL)”.

For FMKVLAVFGSVVTSAPKASK [Shuffled 31], in the assay with Escherichia coli (setting [1]), the “MIC E. coli” value was “+ (MIC greater than 256 ug/mL)”. Moreover, the “MIC B. cereus” value with B. cereus (setting [1]) is recorded as “+ (MIC greater than 256 ug/mL)”.

For FVGGVASKVVPSVYCKVSKK [Peptide 85], the “MIC E. coli” value against Escherichia coli (setting [1]) is reported as “+ (MIC greater than 256 ug/mL)”. Moreover, in the assay on B. cereus (setting [1]), the “MIC B. cereus” value is given as “+ (MIC greater than 256 ug/mL)”.

As to FVGSLASKVVPSVFGAIKTK [Peptide 82], in the assay on Escherichia coli (setting [1]), the “MIC E. coli” value is reported as “+ (MIC greater than 256 ug/mL)”. Further, the “MIC B. cereus” value against B. cereus (setting [1]) is given as “+ (MIC greater than 256 ug/mL)”.

Take GAVFGVASKVVPSVFSAIKK [Peptide 84]: the “MIC E. coli” value with Escherichia coli (setting [1]) is listed as “+ (MIC greater than 256 ug/mL)”. Besides, the “MIC B. cereus” value against B. cereus (setting [1]) is recorded as “+ (MIC greater than 256 ug/mL)”.

For GLKKDALQSIVKKAQLAAMG [Shuffled 9], in the assay with Escherichia coli (setting [1]), the “MIC E. coli” value is recorded as “+ (MIC greater than 256 ug/mL)”. Further, in the assay on B. cereus (setting [1]), the “MIC B. cereus” value is on record as “+ (MIC greater than 256 ug/mL)”.

On to GVSSPIVAVKFKGAVASLIK [Shuffled 6], for which, in the assay with Escherichia coli (setting [1]), the “MIC E. coli” value is “+ (MIC greater than 256 ug/mL)”. For the same molecule, the “MIC B. cereus” value against B. cereus (setting [1]) is on record as “+ (MIC greater than 256 ug/mL)”.

As to GVVGKLASKVVPSVFGSFTK [Peptide 34], the “MIC E. coli” value with Escherichia coli (setting [1]) is listed as “+ (MIC greater than 256 ug/mL)”. Besides, the “MIC B. cereus” value against B. cereus (setting [1]) is “+ (MIC greater than 256 ug/mL)”.

As to HTGRSGPATGHSGHSSTHGS [Peptide 86], in the assay with Escherichia coli (setting [1]), the “MIC E. coli” value was “+ (MIC greater than 256 ug/mL)”. For the same molecule, the “MIC B. cereus” value against B. cereus (setting [1]) is “+ (MIC greater than 256 ug/mL)”.

In the case of IASAVPVCVKGKISKSYISV [Shuffled 44], in the assay with Escherichia coli (setting [1]), the “MIC E. coli” value is “+ (MIC greater than 256 ug/mL)”. In addition, the “MIC B. cereus” value in the assay with B. cereus (setting [1]) is “+ (MIC greater than 256 ug/mL)”.

Consider KFDPLEGAPMARGIVLEKVG [Peptide 74], for which the “MIC E. coli” value with Escherichia coli (setting [1]) is given as “+ (MIC greater than 256 ug/mL)”. The “MIC B. cereus” value in the assay with B. cereus (setting [1]) is given as “+ (MIC greater than 256 ug/mL)”.

KGRGKQGGKVRAKAKTRSS [Parasin]: the “MIC E. coli” value in the assay with Escherichia coli (setting [1]) is “+ (MIC greater than 256 ug/mL)”. In addition, the “MIC B. cereus” value in the assay with B. cereus (setting [1]) was “+ (MIC greater than 256 ug/mL)”.

Turning to KIVKVITVKSISPASLVPVF [Shuffled 83], the “MIC E. coli” value in the assay on Escherichia coli (setting [1]) is on record as “++ (MIC greater than 128 ug/mL, not sufficiently soluble to test as 256 ug/mL)”. The “MIC B. cereus” value against B. cereus (setting [1]) was “++ (MIC greater than 128 ug/mL, not sufficiently soluble to test as 256 ug/mL)”.

With KSPFVLVVSSRVAAVIKSLP [Shuffled 25], in the assay with Escherichia coli (setting [1]), the “MIC E. coli” value is “+ (MIC greater than 256 ug/mL)”. In addition, the “MIC B. cereus” value in the assay with B. cereus (setting [1]) was “+ (MIC greater than 256 ug/mL)”.

With KTVPVVLKASIKVSSAGFGF [Shuffled 82], the “MIC E. coli” value in the assay with Escherichia coli (setting [1]) is listed as “+ (MIC greater than 256 ug/mL)”. For the same molecule, in the assay on B. cereus (setting [1]), the “MIC B. cereus” value was “+ (MIC greater than 256 ug/mL)”.

KVGKGSYPCSFVKVVAKVSV [Shuffled 85]: the “MIC E. coli” value against Escherichia coli (setting [1]) is on record as “+ (MIC greater than 256 ug/mL)”. In addition, the “MIC B. cereus” value with B. cereus (setting [1]) was “+ (MIC greater than 256 ug/mL)”.

Consider KVYVVKIAVPCFPKSARSVS [Shuffled 29], for which the “MIC E. coli” value in the assay on Escherichia coli (setting [1]) is listed as “+ (MIC greater than 256 ug/mL)”. The “MIC B. cereus” value against B. cereus (setting [1]) is “+ (MIC greater than 256 ug/mL)”.

Turning to KYGPALVIAVKKSCSLTFRA [Shuffled 23], the “MIC E. coli” value with Escherichia coli (setting [1]) is “+ (MIC greater than 256 ug/mL)”. Besides, the “MIC B. cereus” value against B. cereus (setting [1]) is given as “+ (MIC greater than 256 ug/mL)”.

LGVVGSLASKVVPAVISKVK [Peptide 57]: the “MIC E. coli” value against Escherichia coli (setting [1]) is reported as “+ (MIC greater than 256 ug/mL)”. Further, in the assay on B. cereus (setting [1]), the “MIC B. cereus” value was “+ (MIC greater than 256 ug/mL)”.

With LPAVFKLASKVVPSVFGLVK [Peptide 42], in the assay with Escherichia coli (setting [1]), the “MIC E. coli” value is reported as “+ (MIC greater than 256 ug/mL)”. Also, the “MIC B. cereus” value in the assay with B. cereus (setting [1]) is listed as “+ (MIC greater than 256 ug/mL)”.

As to LPVLFSSAIAKVGIKLGAKV [Shuffled 96], in the assay with Escherichia coli (setting [1]), the “MIC E. coli” value was “+ (MIC greater than 256 ug/mL)”. The “MIC B. cereus” value against B. cereus (setting [1]) is on record as “+ (MIC greater than 256 ug/mL)”.

As to LPVVFKIASKVVPSVISKIT [Peptide 83], the “MIC E. coli” value in the assay on Escherichia coli (setting [1]) is reported as “+ (MIC greater than 256 ug/mL)”. Moreover, the “MIC B. cereus” value against B. cereus (setting [1]) was “+ (MIC greater than 256 ug/mL)”.

The values are drawn from patent publication US7739055B2, “Methods and systems for generating and evaluating peptides” (priority 2005, dated 2010).
